Measured values taken from patent US11252962B2, “Cyclopropylpyridyl group-containing benzimidazole compound or salt thereof, agricultural and horticultural insecticide comprising the compound or the salt, and method for using the insecticide” (NIHON NOHYAKU CO., LTD., priority 2017, dated 2022).

What was measured:
[1] = tested on: Myzus persicae; assay: Test for control efficacy on Myzus persicae; type: in vivo; conditions: 144 h, foliar application to potted Chinese cabbage, 6 days after application, read-out: control efficacy (control rate), activity level
From the text: Test for Control Efficacy on Myzus persicae Chinese cabbage plants were planted in plastic pots (diameter: 8 cm, height: 8 cm), Green peach aphids (M. persicae) were propagated on the plants, and the number of surviving Green peach aphids in each pot was counted. […] The agrochemical dispersions were applied to the foliage of the potted Chinese cabbage plants. After the plants were air-dried, the pots were kept in a greenhouse. At 6 days after the foliar application, the number of surviving Green peach aphids on the Chinese cabbage plant in each pot was counted, the control rate was calculated according to the formula shown below, and the control efficacy was evaluated according to the criteria shown below. Control rate=100−{(T×Ca)/(Ta×C)}×100 [Math. 1] Ta: the number of survivors before the foliar application in a treatment plot T: the number of survivors after the foliar application in a treatment plot Ca: the number of survivors before the foliar application in a non-treatment plot C: the number of survivors after the foliar application in a non-treatment plot Criteria A: the control rate is 100%. […] C: the control rate is 80 to 89%.

[2] = tested on: Laodelphax striatellus; assay: Insecticidal test on Laodelphax striatellus; type: in vivo; conditions: 192 h, rice seedlings dipped 30 seconds, 3rd-instar larvae, 8 days after inoculation, read-out: insecticidal efficacy (corrected mortality rate), activity level
Description: Insecticidal Test on Laodelphax striatellus
Rice plant seedlings (variety: Nihonbare) were dipped in the agrochemical dispersions for 30 seconds. After air-dried, each seedling was put into a separate glass test tube and inoculated with ten 3rd-instar larvae of L. striatellus, and then the glass test tubes were capped with cotton plugs. At 8 days after the inoculation, the numbers of surviving larvae and dead larvae were counted, the corrected mortality rate was calculated according to the formula shown below, and the insecticidal efficacy was evaluated according to the criteria shown below. Corrected mortality rate (%)=100×(Survival rate in a non-treatment plot−Survival rate in a treatment plot)/Survival rate in a non-treatment plot [Math. 2] Corrected Mortality Rate A: the corrected mortality rate is 100%.

[3] = tested on: Plutella xylostella; assay: Insecticidal test on Plutella xylostella; type: in vivo; conditions: 144 h, Chinese cabbage seedlings with laid eggs dipped about 30 seconds, 6 days after dip treatment, 25° C., read-out: insecticidal efficacy (corrected mortality rate), activity level
Description: Insecticidal Test on Plutella xylostella
Adults of P. xylostella were released onto Chinese cabbage seedlings and allowed to lay eggs thereon. […] After air-dried, the seedlings were kept in a thermostatic chamber at 25° C. […] This test was conducted in triplicate using 10 adults of P. xylostella per plot. Corrected mortality rate (%)=100×(Number of hatched larvae in a non-treatment plot−Number of hatched larvae in a treatment plot)/Number of hatched larvae in a non-treatment plot [Math. 3]

[4] = tested on: Haemonchus contortus; assay: Parasiticidal test on Haemonchus contortus (larval motility); conditions: 1st-instar larvae, 96-well plates, 27° C., 96 hours, read-out: percent inhibition in motility
From the text: Parasiticidal Test on Haemonchus contortus
Eggs of H. contortus were collected from feces of a goat and hatched in water. […] Percent inhibition in motility (%)=100×(Average motility in negative control wells−Average motility in treated wells)/Average motility in negative control wells [Math. 5]

[5] = tested on: Rhipicephalus sanguineus; assay: Parasiticidal test on Rhipicephalus sanguineus; type: in vivo; conditions: treated filter paper, nymphs, 27° C., 48 hours after treatment, read-out: corrected mortality rate
Description: Parasiticidal Test on Rhipicephalus sanguineus
The diluted formulations were applied dropwise onto filter paper pieces placed in separate vials. The filter paper pieces were dried. Ten nymphs of R. sanguineus were placed into each vial and maintained at 27° C. with 80% humidity under a 12L12D light-dark cycle (L: light time, D: dark time). At 48 hours after agrochemical treatment, the numbers of surviving and dead nymphs were counted, and the corrected mortality rate was calculated according to the formula of Math. 4.

[6] = tested on: Ctenocephalides felis; assay: Parasiticidal test on Ctenocephalides felis; type: in vivo; conditions: 50 ppm in bovine blood, adults, artificial feeding system 35° C., 24 hours after treatment, read-out: corrected mortality rate
Description: Parasiticidal Test on Ctenocephalides felis
Newly-emerged adults of C. felis were placed into test cages (10 adults per test cage), and the test cages were maintained at 35° C. in an artificial feeding system. At 24 hours after agrochemical treatment, the numbers of surviving and dead adults were counted, and the corrected mortality rate was calculated according to the formula shown below. Corrected mortality rate (%)=100×(Survival rate in a negative control group−Survival rate in a treatment group)/Survival rate in a negative control group [Math.

Compound | pest or weed control at 500 ppm [1] [%] | mortality at 500 ppm [2] [%] | mortality at 500 ppm [3] [%] | inhibition at 100 ppm [4] [%] | mortality at 100 ppm [5] [%] | mortality at 50 ppm [6] [%]
CCSc1cc(C2CC2)cnc1-c1nc2cc(SC(F)(F)F)ccc2n1C [Compound 1-1, 2-(3-ethylthio-5-cyclopropylpyridin-2-yl)-1-methyl-5-(trifluoromethylthio)benzimidazole] | 100 | 100 | 100 |  |  | 
CC[S+]([O-])c1cc(C2CC2)cnc1-c1nc2cc(SC(F)(F)F)ccc2n1C (stereo not drawn) [Compound 1-2, 2-(3-ethylsulfinyl-5-cyclopropylpyridin-2-yl)-1-methyl-5-(trifluoromethylthio)benzimidazole] | 100 | 100 | 100 |  |  | 
CCS(=O)(=O)c1cc(C2CC2)cnc1-c1nc2cc(SC(F)(F)F)ccc2n1C [Compound 1-3, 2-(3-ethylsulfonyl-5-cyclopropylpyridin-2-yl)-1-methyl-5-(trifluoromethylthio)benzimidazole] | 100 | 100 | 100 | ≥ 50 | ≥ 90 | ≥ 90
CCS(=O)(=O)c1cc(C2CC2)cnc1-c1nc2cc([S+]([O-])C(F)(F)F)ccc2n1C (stereo not drawn) [Compound 1-4, 2-(3-ethylsulfonyl-5-cyclopropylpyridin-2-yl)-1-methyl-5-(trifluoromethylsulfinyl)benzimidazole] | 100 | 100 | 100 | ≥ 50 | ≥ 90 | ≥ 90
CCS(=O)(=O)c1cc(C2CC2)cnc1-c1nc2cc(S(=O)(=O)C(F)(F)F)ccc2n1C [Compound 1-5, 2-(3-ethylsulfonyl-5-cyclopropylpyridin-2-yl)-1-methyl-5-(trifluoromethylsulfonyl)benzimidazole] | 100 | 100 | 100 |  |  | 
CCSc1cc(C2(C#N)CC2)cnc1-c1nc2cc(SC(F)(F)F)ccc2n1C [Compound 1-6] | 100 | 100 | 100 |  |  | 
CCS(=O)(=O)c1cc(C2CC2)cnc1-c1nc2cc(OC(F)(F)F)ccc2n1C [Compound 1-27, 2-(5-cyclopropyl-3-ethylsulfonyl-pyridin-2-yl)-1-methyl-5-trifluoromethoxybenzimidazole] | 100 | 100 | 100 |  |  | 
CCSc1cc(C2(C#N)CC2)cnc1-c1nc2cc(OC(F)(F)F)ccc2n1C [Compound 1-83, 2-(5-(1-cyanocyclopropyl)-3-ethylthiopyridin-2-yl)-1-methyl-5-trifluoromethoxybenzimidazole] | 100 | 100 | 100 |  |  | 
CCS(=O)(=O)c1cc(C2(C#N)CC2)cnc1-c1nc2cc(OC(F)(F)F)ccc2n1C [Compound 1-85, 2-(5-(1-cyanocyclopropyl)-3-ethylsulfonyl-pyridin-2-yl)-1-m ethyl-5-trifluoromethoxybenzimidazole] | 100 | 100 | 100 |  |  | 
